ChEMBL document CHEMBL1201862, “PubChem BioAssay data set” (2004)
Activity calls are given as the source filed them.

What was measured:
[1] = biological target: 14-3-3 protein gamma (Homo sapiens, UniProt P61981); assay: modulators of 14-3-3 gamma client binding – dose response (AID 711); assay type: functional
[2] = biological target: UDP-galactopyranose mutase (Mycobacterium tuberculosis, UniProt P9WIQ1); assay: Inhibitors of Mycobacterium tuberculosis UDP-galactopyranose mutase (UGM) enzyme Measured in Biochemical System Using Plate Reader - 2105-02_Inhibitor_Dose_CherryPick_Activity. [Related pubchem assays (depositor defined):AID504439]
UDP-galactopyranose mutase, sequence (P9WIQ1 whole entry): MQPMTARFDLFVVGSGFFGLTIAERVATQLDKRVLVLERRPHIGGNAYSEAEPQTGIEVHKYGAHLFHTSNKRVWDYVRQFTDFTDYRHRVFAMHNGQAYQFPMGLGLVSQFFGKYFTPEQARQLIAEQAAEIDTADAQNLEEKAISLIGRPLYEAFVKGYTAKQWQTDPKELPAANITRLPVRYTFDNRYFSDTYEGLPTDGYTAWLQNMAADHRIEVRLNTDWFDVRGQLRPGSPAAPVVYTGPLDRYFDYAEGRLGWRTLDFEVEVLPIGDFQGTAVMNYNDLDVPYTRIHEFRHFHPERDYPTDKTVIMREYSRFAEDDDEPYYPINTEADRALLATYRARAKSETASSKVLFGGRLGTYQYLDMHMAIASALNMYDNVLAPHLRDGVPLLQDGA

[3] = biological target: Peroxisome proliferator-activated receptor gamma/Nuclear receptor coactivator 3 (Homo sapiens, UniProt P37231); assay: (§1) TR-FRET dose response biochemical High Throughput Screening assay for agonists of the steroid receptor coactivator 3 (SRC-3) recruitment by the peroxisome proliferator-activated receptor gamma (PPAR gamma): non-selective agonists. [Related pubchem assays: 1301 (Confirmation screen.), 1048 (Primary screen.)]; assay type: functional
Peroxisome proliferator-activated receptor gamma/Nuclear receptor coactivator 3, sequence (P37231 whole entry, the tested form may be a part): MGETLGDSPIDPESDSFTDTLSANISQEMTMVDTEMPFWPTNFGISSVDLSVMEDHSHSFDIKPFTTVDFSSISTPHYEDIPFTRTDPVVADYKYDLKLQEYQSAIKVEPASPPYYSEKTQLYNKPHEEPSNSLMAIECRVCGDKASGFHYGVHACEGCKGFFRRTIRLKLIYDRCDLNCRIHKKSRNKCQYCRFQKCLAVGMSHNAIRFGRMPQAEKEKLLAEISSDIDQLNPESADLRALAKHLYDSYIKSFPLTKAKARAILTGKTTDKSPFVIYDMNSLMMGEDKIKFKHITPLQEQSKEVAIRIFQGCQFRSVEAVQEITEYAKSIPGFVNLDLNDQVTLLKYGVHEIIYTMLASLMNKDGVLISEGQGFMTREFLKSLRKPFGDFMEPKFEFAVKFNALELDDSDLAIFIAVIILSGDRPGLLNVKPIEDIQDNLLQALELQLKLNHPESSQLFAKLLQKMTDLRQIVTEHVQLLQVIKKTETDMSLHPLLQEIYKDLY
Peroxisome proliferator-activated receptor gamma/Nuclear receptor coactivator 3, sequence (Q9Y6Q9 whole entry, further chain, the tested form may be a part): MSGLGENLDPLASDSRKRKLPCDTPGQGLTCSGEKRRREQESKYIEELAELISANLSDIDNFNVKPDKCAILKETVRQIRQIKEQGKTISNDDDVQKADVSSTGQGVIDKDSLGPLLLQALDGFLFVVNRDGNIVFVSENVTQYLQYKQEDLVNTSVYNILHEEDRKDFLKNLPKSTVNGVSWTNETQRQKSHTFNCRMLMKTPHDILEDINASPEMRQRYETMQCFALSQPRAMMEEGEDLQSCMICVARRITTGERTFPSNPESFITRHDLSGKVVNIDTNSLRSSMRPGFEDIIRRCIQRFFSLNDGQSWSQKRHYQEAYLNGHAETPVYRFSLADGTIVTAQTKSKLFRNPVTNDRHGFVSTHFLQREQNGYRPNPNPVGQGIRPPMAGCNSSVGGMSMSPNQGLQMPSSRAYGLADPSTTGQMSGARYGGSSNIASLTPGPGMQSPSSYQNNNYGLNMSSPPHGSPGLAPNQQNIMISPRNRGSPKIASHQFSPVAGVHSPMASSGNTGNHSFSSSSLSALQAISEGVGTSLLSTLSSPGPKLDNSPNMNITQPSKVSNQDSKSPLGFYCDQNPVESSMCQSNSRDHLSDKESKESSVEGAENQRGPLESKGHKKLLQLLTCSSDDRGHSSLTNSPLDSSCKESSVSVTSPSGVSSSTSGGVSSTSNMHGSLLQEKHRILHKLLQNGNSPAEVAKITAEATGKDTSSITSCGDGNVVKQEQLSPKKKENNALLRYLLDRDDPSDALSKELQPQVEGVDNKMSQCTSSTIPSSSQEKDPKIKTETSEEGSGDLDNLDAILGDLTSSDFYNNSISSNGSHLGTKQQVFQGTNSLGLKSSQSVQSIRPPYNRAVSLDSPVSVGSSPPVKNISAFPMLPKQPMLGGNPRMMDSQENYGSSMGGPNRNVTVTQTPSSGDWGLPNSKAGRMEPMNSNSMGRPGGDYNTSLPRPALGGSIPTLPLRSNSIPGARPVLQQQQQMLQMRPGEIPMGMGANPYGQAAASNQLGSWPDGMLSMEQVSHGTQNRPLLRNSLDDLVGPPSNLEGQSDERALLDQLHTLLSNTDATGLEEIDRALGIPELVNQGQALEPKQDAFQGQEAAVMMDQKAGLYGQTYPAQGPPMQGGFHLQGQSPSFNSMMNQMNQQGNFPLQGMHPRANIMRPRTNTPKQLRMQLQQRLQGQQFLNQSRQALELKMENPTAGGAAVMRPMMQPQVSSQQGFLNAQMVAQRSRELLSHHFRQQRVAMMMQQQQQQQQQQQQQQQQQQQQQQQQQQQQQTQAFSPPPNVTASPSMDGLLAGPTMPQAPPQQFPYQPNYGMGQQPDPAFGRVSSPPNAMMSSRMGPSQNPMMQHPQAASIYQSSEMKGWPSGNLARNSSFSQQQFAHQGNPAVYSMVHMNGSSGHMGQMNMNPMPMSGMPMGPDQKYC

[4] = biological target: T1, RNA-binding protein pos-1 (Caenorhabditis elegans, UniProt G5EF15); assay: disruptors of C. elegans POS-1 RNA interaction – biochemical, fluorescence polarization, dose response (AID 1964);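 also: purified POS-1 fused to maltose binding protein made in E. coli; potency of compounds blocking POS-1 binding to fluorescent RNA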
T1 sequence (G5EF15 whole entry): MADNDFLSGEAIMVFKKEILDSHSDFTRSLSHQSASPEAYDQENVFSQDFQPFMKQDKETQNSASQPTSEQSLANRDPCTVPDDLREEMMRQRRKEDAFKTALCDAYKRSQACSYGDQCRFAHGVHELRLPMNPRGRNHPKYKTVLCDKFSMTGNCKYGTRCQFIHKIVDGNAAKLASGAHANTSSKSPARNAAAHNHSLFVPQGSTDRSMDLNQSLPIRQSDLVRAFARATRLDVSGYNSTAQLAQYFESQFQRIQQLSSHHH

[5] = biological target: Mitogen-activated protein kinase 10 (Homo sapiens, UniProt P53779); assay: Dose response biochemical screening assay for inhibitors of c-Jun N-Terminal Kinase 3 (JNK3). [Related pubchem assays: 746 ]
Mitogen-activated protein kinase 10, sequence (P53779 whole entry): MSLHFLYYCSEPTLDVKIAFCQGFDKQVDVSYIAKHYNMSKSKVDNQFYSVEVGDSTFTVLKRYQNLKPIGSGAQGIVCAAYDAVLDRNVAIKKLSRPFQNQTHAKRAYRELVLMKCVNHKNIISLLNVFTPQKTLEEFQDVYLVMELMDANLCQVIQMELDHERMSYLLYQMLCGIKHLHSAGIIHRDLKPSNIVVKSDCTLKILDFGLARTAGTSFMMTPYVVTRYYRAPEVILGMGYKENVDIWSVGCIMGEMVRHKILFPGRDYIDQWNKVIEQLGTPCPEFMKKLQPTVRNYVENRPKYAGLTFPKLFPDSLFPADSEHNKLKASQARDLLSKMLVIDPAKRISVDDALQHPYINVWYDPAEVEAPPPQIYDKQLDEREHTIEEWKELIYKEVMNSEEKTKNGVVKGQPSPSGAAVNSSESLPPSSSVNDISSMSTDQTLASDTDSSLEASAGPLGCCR

[6] = tested on: HeLa; assay: viability loss in HeLa cells – cell-based, 24 h, cherry-picked samples, cytotoxicity control, dose response (AID 504726); assay type: functional; settings: Homo sapiens;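 also: potency for cytotoxicity as loss of luminescence signal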
[7] = biological target: Keap1/Nrf2 (Homo sapiens, UniProt Q14145); assay: disruptors of Keap1 binding to Nrf2 peptide – biochemical, fluorescence polarization, cherry-picked samples, dose response (AID 588683)
[8] = biological target: Peroxisome proliferator-activated receptor gamma/Nuclear receptor coactivator 1 (Homo sapiens, UniProt P37231); assay: as §1, with “1 (SRC-1)” for “3 (SRC-3)”, “assays (depositor defined):AID1300, AID1808, AID504735, AID631]” for “assays: 1301 (Confirmation screen.), 1048 (Primary screen.)]”; assay type: protein assay
Peroxisome proliferator-activated receptor gamma/Nuclear receptor coactivator 1, sequence (P37231 whole entry): as the sequence (P37231 whole entry, the tested form may be a part) above
Peroxisome proliferator-activated receptor gamma/Nuclear receptor coactivator 1, sequence (Q15788 whole entry, further chain): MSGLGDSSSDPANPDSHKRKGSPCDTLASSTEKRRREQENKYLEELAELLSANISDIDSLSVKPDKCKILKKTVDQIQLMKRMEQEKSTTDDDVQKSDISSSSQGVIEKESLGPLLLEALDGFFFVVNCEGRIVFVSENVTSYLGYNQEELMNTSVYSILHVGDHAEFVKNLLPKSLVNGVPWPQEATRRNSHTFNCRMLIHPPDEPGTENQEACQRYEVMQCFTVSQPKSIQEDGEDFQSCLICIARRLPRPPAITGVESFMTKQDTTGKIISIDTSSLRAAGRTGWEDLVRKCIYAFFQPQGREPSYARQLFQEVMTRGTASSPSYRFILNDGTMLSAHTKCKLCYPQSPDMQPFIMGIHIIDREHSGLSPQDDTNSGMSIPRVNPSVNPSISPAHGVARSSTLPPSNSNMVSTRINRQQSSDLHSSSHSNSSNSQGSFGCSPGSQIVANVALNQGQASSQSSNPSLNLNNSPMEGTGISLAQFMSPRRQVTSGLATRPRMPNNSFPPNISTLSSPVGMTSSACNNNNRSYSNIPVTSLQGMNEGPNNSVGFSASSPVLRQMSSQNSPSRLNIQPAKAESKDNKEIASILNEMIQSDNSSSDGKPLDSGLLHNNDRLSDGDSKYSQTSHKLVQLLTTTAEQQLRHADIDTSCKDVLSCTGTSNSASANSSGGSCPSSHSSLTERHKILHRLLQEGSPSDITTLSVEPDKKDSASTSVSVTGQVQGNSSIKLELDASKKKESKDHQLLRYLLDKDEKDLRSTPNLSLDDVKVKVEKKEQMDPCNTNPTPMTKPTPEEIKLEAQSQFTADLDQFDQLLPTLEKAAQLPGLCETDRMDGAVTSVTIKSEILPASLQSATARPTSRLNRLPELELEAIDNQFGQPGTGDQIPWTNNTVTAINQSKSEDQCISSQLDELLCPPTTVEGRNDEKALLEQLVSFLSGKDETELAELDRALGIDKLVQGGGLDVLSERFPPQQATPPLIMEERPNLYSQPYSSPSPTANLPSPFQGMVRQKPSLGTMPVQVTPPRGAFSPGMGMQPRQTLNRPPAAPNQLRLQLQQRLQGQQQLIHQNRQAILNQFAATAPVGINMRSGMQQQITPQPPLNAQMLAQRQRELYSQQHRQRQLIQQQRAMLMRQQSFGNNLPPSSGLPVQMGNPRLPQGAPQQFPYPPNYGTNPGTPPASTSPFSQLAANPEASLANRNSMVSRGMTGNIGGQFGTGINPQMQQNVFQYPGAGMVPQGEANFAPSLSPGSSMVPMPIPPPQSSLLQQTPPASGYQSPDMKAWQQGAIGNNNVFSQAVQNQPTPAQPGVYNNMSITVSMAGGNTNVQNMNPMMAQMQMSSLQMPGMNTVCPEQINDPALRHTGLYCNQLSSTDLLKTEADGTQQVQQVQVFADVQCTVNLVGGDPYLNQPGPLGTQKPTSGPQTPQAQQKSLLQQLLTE

[9] = biological target: Peroxisome proliferator-activated receptor gamma/Nuclear receptor coactivator 2 (Homo sapiens, UniProt P37231); assay: TR-FRET dose response biochemical High Throughput Screening assay for agonists of the steroid receptor coactivator 2 (SRC-2) recruitment by the peroxisome proliferator-activated receptor gamma (PPAR gamma): non-selective agonists. [Related pubchem assays: 1297, 1032 ]; assay type: functional
[10] = biological target: T2, ORF 73 (Human herpesvirus 8, UniProt O40947); assay: KSHV LANA DNA-binding disruption – biochemical, fluorescence polarization, cherry-picked samples, dose response (AID 504725); set-up: species or system Human gammaherpesvirus 8;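 also: fluorescence polarization of a labeled DNA duplex reporting LANA DNA binding; potency is for inhibitors that block LANA binding to the DNA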
T2 sequence (O40947 whole entry): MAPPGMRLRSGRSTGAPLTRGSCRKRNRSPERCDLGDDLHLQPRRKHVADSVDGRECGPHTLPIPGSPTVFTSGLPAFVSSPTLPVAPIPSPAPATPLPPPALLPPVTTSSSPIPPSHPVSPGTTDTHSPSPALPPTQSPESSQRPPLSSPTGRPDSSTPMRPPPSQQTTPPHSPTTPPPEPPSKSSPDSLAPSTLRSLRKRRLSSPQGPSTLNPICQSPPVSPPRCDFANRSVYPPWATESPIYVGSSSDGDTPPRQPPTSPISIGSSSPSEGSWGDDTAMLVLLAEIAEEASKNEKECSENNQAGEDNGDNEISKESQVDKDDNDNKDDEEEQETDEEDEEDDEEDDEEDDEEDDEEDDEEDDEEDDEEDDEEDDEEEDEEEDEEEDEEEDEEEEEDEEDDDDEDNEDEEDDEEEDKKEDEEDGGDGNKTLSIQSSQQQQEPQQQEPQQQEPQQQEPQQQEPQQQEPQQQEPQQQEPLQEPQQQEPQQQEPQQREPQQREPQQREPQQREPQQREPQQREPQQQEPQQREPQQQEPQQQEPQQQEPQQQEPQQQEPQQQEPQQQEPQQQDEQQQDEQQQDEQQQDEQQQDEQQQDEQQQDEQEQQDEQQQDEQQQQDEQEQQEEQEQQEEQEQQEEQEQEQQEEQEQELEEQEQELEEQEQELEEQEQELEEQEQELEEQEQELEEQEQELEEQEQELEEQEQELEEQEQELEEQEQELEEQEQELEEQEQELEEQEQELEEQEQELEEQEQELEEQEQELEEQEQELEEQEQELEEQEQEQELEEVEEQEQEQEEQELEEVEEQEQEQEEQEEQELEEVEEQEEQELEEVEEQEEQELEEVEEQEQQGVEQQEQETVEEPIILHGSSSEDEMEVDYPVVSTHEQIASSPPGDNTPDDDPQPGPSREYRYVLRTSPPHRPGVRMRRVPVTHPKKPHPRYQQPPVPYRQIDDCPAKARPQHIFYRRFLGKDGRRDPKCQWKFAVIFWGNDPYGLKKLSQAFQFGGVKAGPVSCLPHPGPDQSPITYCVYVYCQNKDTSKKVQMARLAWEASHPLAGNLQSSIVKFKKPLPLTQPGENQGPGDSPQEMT

[11] = biological target: T3, Zinc finger protein mex-5 (Caenorhabditis elegans, UniProt Q9XUB2); assay: potency of MEX-5 RNA-binding blockers – biochemical, C. elegans, fluorescence polarization, dose response (AID 1960)
T3 sequence (Q9XUB2 whole entry): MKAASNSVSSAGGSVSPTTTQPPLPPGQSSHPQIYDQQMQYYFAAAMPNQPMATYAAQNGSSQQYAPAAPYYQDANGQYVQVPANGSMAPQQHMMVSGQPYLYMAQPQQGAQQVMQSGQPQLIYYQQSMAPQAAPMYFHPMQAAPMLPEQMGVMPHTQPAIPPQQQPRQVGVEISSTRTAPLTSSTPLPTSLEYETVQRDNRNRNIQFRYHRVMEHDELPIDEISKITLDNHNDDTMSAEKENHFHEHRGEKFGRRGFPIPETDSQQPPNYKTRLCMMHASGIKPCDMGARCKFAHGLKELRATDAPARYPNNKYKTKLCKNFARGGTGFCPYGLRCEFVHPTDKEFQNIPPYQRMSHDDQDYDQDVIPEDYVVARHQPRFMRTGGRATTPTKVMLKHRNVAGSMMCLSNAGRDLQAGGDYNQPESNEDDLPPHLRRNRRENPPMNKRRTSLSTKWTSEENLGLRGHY

[12] = loss of viability in HepG2 cells – cell-based, CellTiter-Glo, cherry-picked, cytotoxicity control for Shn3 inhibitor project, dose response (AID 624134); assay type: functional
[13] = biological target: T4, Interleukin-8 (Homo sapiens, UniProt P10145); assay: Dose Response confirmation of uHTS small molecule hits for cystic fibrosis induced NFkb Inhibitors in a TNFa-induced IL8 counterscreen.; assay type: functional; settings: read-out: IC50_Mean
T4 sequence (P10145 whole entry): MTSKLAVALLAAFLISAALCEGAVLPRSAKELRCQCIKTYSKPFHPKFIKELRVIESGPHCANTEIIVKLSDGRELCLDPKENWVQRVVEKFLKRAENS

[14] = non-specific 3'UTR reporter inhibition in Clone20-Shn3RL – cell-based, Renilla luciferase, cherry-picked, counter-screen for Shn3 inhibitor project, dose response (AID 624133); assay type: functional
[15] = reduction of Shn3 3'UTR-driven luciferase in osteoblasts – cell-based, Clone20 osteoblasts, firefly luciferase, cherry-picked, dose response (AID 624132); assay type: functional;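 also: firefly luciferase luminescence from reporter carrying the Shn3 3'UTR in osteoblasts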
[16] = tested on: INS1; assay: INS-1E survival protection against cytokine death – cell-based, luminescence, retest, dose response (AID 449756); assay type: functional; settings: Rattus norvegicus;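 also: cell death triggered by IL-1 beta plus TNF-alpha plus IFN-gamma mixture; protective hits raise ATP signal compared with cytokine alone wells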
[17] = tested on: Vero; assay: mammalian cell viability reduction – secondary assay, cytotoxicity control for West Nile virus antiviral project, dose response (AID 1650); assay type: functional; settings: Chlorocebus sabaeus
[18] = biological target: T5, Heat shock factor protein 1 (Mus musculus, UniProt P38532); assay: enhancement of HSF1-driven luciferase signal – cell-based, NIH3T3, luminescence, dose retest, confirmation (AID 435004); assay type: functional;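 also: stress induced by proteasome inhibitor MG132 added 30 min after compound; luciferase reporter driven by HSF1 response element in NIH3T3 cells; actives raise luminescence as potentiators of the MG132 stress response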
T5 sequence (P38532 whole entry): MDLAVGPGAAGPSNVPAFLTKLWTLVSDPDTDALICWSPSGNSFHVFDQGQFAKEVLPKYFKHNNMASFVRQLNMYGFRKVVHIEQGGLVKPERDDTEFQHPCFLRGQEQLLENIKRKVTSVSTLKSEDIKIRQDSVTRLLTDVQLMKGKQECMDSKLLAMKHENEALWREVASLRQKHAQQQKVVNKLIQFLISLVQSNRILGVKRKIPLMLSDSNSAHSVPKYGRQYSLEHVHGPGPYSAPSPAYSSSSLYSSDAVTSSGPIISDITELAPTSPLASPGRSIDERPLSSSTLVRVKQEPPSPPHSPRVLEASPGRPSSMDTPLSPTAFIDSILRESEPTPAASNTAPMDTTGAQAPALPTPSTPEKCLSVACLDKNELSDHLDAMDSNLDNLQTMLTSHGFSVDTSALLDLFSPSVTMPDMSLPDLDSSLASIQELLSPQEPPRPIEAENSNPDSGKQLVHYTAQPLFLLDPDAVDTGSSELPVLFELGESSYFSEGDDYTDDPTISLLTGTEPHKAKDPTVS

[19] = biological target: T4, Interleukin-8; assay: Dose Response confirmation of uHTS small molecule hits for cystic fibrosis induced NFkb Inhibitors in a PAF-induced IL8 counterscreen.; assay type: functional; settings: read-out: IC50_Mean
[20] = biological target: T6, Bcl-2-related protein A1 (Mus musculus, UniProt Q07440); assay: Bfl-1 binding inhibitors, SAR follow-up, biochemical, fluorescence polarization (AID 1070)
T6 sequence (Q07440 whole entry): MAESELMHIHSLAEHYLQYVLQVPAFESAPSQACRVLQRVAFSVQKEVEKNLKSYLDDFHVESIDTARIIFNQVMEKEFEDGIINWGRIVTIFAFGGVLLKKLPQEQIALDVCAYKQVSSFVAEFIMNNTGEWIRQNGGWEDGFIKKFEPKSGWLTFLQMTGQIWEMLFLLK

[21] = biological target: T6, Bcl-2-related protein A1; assay: small-molecule antagonists of Bfl-1/BH3 interaction – biochemical, TR-FRET, mouse Bfl-1, confirmation (AID 621);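 also: TR-FRET binding of GST-Bfl-1 to FITC-labelled Bid peptide via terbium antibody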
[22] = tested on: Vero; assay: viability of Vero cells under compound – cytotoxicity control for flavivirus capping enzyme inhibitors (AID 588742); assay type: functional; settings: Chlorocebus sabaeus
[23] = NIH-3T3 fibroblast cytotoxicity, dose response, cytotoxicity control, cell-based, fluorescence, Alamar Blue, secondary assay (AID 2327); assay type: functional;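 also: NIH-3T3 mouse fibroblasts cultured with fluconazole at 8 µg/mL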
[24] = Luminescence Cell-Based Dose Response to Identify Activators of Luciferase Translation or Activity in H4-C Neuroglioblastoma Cells. [Related pubchem assays: 1829 (Project Summary), 1814 (Primary HTS)]; assay type: functional
[25] = Luminescence Cell-Based Dose Confirmation to Identify Activators of 5'UTR Stem-Loop Driven Alpha-Synuclein mRNA Translation in H4 Neuroglioblastoma Cells. [Related pubchem assays: 1829 (Project Summary), 1814 (Primary HTS)]; assay type: functional
[26] = tested on: H4; assay: Luminescence Cell-Based Dose Response HTS to Identify Activators of 5'UTR Stem-Loop Driven Prion Protein mRNA Translation in H4 Neuroglioblastoma Cells. [Related pubchem assays: 1829 (Project Summary), 1814 (Primary HTS)]; assay type: functional; settings: Homo sapiens
[27] = Luminescence Cell-Based Dose Response to Identify Activators of 5'UTR Stem-Loop Driven Prion Protein mRNA Translation in H4-C Neuroglioblastoma Cells. [Related pubchem assays: 1829 (Project Summary), 1814 (Primary HTS)]; assay type: functional
[28] = Luminescence Cell-Based Dose Response HTS to Identify Activators of Luciferase Translation or Activity in H4 […] Cells. [Related pubchem assays: 1829 (Project Summary), 1814 (Primary HTS)]; assay type: functional
[29] = fluconazole-exposed Candida albicans growth modulators – fluorescence, retest, confirmation (AID 2467); assay type: functional, cell-based

14-3-3 protein gamma, sequence (P61981 whole entry): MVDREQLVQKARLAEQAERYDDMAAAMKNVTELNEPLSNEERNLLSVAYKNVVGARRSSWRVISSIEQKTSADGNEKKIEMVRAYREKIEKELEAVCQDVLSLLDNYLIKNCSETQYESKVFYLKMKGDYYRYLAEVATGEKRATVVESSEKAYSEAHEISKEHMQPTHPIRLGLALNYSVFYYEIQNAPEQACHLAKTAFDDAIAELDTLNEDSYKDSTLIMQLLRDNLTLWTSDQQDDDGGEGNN

SMILES: O=C1c2ccccc2-c2onc3ccc(NCc4ccco4)c1c23
- IC50 [1]: < 44 µM (inconclusive)
- AC50 [2]: 1.2 µM (active)
- EC50 [3]: > 79.4 µM (not active)
- EC50 [4]: 0.173 µM (inconclusive)
- IC50 [5]: 24 µM (not active)
- AC50 [6]: 17.1 µM (active)
- AC50 [7]: 1.26 µM (active)
- EC50 [8]: > 79.4 µM (inactive)
- EC50 [9]: 24.3 µM (not active)
- AC50 [10]: 7.42 µM (active)
- EC50 [11]: < 0.06 µM (inconclusive)

SMILES: COc1ccc2c(c1OC)C(=O)OC2Nc1nc(-c2ccccc2)cs1 (centres undefined)
- AC50 [12]: 58.8 µM (active)
- IC50 [13]: 39.9 µM (inactive)
- AC50 [14]: 17.7 µM (active)
- AC50 [15]: 4.7 µM (active)
- AC50 [16]: 17.6 µM (active)
- CC50 [17]: 9.86 µM (active)
- EC50 [18]: 13.6 µM (active)
- IC50 [19]: 0.697 µM (active)

SMILES: COc1ccc2nc(O)c(-c3nnn(-c4ccccc4)n3)cc2c1
- IC50 [20]: > 100 µM (not active)
- IC50 [21]: > 100 µM (not active)

SMILES: O=C(NNC(=O)c1cc2ccccc2cc1O)c1cccs1
- CC50 [22]: > 40 µM (active)
- EC50 [23]: > 150 µM (inactive)
- EC50 [24]: 1.47 µM (active)
- EC50 [25]: 1.87 µM (active)
- EC50 [26]: > 120 µM (not active)
- EC50 [27]: 9.37 µM (active)
- EC50 [28]: < 0.1 µM (active)
- EC50 [29]: > 38 µM (not active)
